# In patent US8226983B2, “Method for producing pulverized organic compound particle” (Activus Pharma Co., Ltd., priority 2007, dated 2012):
# What was measured:
# [1] = Average particle diameter by BET type specific surface area analyzer; type: physicochemical; conditions: for average particle diameter of the resulting particles: after pulverization; for average particle diameter of the resulting particles / average particle diameter of the starting organic compound: BET method; for average particle diameter of the starting organic compound: before pulverization; for Ave. Diameter after pulverization (nm): as Example 3
# From the text: The average particle diameter of the particles can be measured by conventionally used particle size measurement techniques such as a microscopic method, a screening method, a Coulter counter method, a sedimentation method, an air permeation method, and a gas adsorption method, but the average particle diameter according to the present invention means the average particle diameter measured according to a gas adsorption method. The method is based on the principle that when molecules or ions having a known size are adsorbed to the surface of the particles, the particles adsorb the molecules or ion according to the specific surface area. Thus, the method is a method of determining the specific surface area using an adsorption isotherm equation or an isotherm, and calculating the average particle diameter, and the method is excellent as a method for measuring the average particle diameter of finely pulverized particles. Next, the present invention will be described in more detail by way of Examples, but the present invention is not intended to be limited to the following Examples. The measurement of the average particle size was all carried out using a BET type specific surface area analyzer (Macsorb type MH-1201, manufactured by Mountech Co., Ltd.).
# [2] = Crystallinity by X-ray diffraction; type: physicochemical; conditions: D8 Discover X-ray diffraction apparatus
# From the text: Each crystallinity of the quinolinone derivative before being finely pulverized, the quinolinone derivative obtained in Example 8 and the quinolinone derivative obtained in Comparative Example 8, was examined using an X-ray diffraction measurement apparatus (D8 Discover, manufactured by Bruker AXS, Inc.
structure (smiles),measurement,setting,value
"COc1ccc2c(c1)c(CC(=O)O)c(C)n2C(=O)c1ccc(Cl)cc1 [Comparative Example 1, indomethacin]",average particle diameter of the resulting particles,[1],"1,060 nm"
"CC1=C(/C=C/C(C)=C/C=C/C(C)=C/C=C/C=C(C)/C=C/C=C(C)/C=C/C2=C(C)CCCC2(C)C)C(C)(C)CCC1 [Comparative Example 3, β-carotene]",average particle diameter of the resulting particles,[1],570 nm
"CCC(=O)OCC(=O)[C@@]1(OC(=O)CC)[C@@H](C)C[C@H]2[C@@H]3CCC4=CC(=O)C=C[C@]4(C)[C@@]3(Cl)[C@@H](O)C[C@@]21C [Comparative Example 5, beclometasone dipropionate]",average particle diameter of the resulting particles,[1],730 nm
"CCCCCCCCOc1c(O)c2ccc(NC(=O)C=Cc3cc(OC)c(O)c(OC)c3)cc2n(C)c1=O [Comparative Example 6, 7-(3,5-dimethoxy-4-hydroxycinnamoylamino)-3-octyloxy-4-hydroxy-1-methyl-2(1H)-quinolinone]",average particle diameter of the resulting particles,[1],620 nm
"CCCCCCCCOc1c(O)c2ccc(NC(=O)C=Cc3cc(OC)c(O)c(OC)c3)cc2n(C)c1=O [Comparative Example 7, 7-(3,5-dimethoxy-4-hydroxycinnamoylamino)-3-octyloxy-4-hydroxy-1-methyl-2(1H)-quinolinone]",average particle diameter of the resulting particles,[1],128 nm
"Clc1ccc(COC(Cn2ccnc2)c2ccc(Cl)cc2Cl)c(Cl)c1 (stereo not drawn) [Comparative Example 8, miconazole]",average particle diameter of the resulting particles,[1],651 nm
same,crystallinity (X-ray diffraction),[2],amorphous
"CCC(=O)O[C@]1(C(=O)SCF)[C@H](C)C[C@H]2[C@@H]3C[C@H](F)C4=CC(=O)C=C[C@]4(C)[C@@]3(F)[C@@H](O)C[C@@]21C [Comparative Example 10, fluticasone propionate]",average particle diameter of the resulting particles,[1],438 nm
"COc1cc(C(=O)NS(=O)(=O)c2ccccc2C)ccc1Cc1cn(C)c2ccc(NC(=O)OC3CCCC3)cc12 [Comparative Example 13, zafirlukast]",average particle diameter of the resulting particles,[1],558 nm
"CC(C)Cc1ccc(C(C)C(=O)O)cc1 (stereo not drawn) [Comparative Example 14, ibuprofen]",average particle diameter of the resulting particles,[1],"1,900 nm"
"CCCCCCCCOc1c(O)c2ccc(NC(=O)C=Cc3cc(OC)c(O)c(OC)c3)cc2n(C)c1=O [Example 8, 7-(3,5-dimethoxy-4-hydroxycinnamoylamino)-3-octyloxy-4-hydroxy-1-methyl-2(1H)-quinolinone]",crystallinity (X-ray diffraction),[2],crystalline structures
"CCC(=O)O[C@]1(C(=O)SCF)[C@H](C)C[C@H]2[C@@H]3C[C@H](F)C4=CC(=O)C=C[C@]4(C)[C@@]3(F)[C@@H](O)C[C@@]21C [Example 17, fluticasone propionate]",average particle diameter of the resulting particles,[1],114 nm
"CCC(=O)O[C@]1(C(=O)SCF)[C@H](C)C[C@H]2[C@@H]3C[C@H](F)C4=CC(=O)C=C[C@]4(C)[C@@]3(F)[C@@H](O)C[C@@]21C [Example 18, fluticasone propionate]",average particle diameter of the resulting particles,[1],108 nm
"CCC(=O)O[C@]1(C(=O)SCF)[C@H](C)C[C@H]2[C@@H]3C[C@H](F)C4=CC(=O)C=C[C@]4(C)[C@@]3(F)[C@@H](O)C[C@@]21C [Example 19, fluticasone propionate]",average particle diameter of the resulting particles,[1],103 nm
"CCC(=O)O[C@]1(C(=O)SCF)[C@H](C)C[C@H]2[C@@H]3C[C@H](F)C4=CC(=O)C=C[C@]4(C)[C@@]3(F)[C@@H](O)C[C@@]21C [Example 20, fluticasone propionate]",average particle diameter of the resulting particles,[1],94 nm
"CCC(=O)O[C@]1(C(=O)SCF)[C@H](C)C[C@H]2[C@@H]3C[C@H](F)C4=CC(=O)C=C[C@]4(C)[C@@]3(F)[C@@H](O)C[C@@]21C [Example 21, fluticasone propionate]",average particle diameter of the resulting particles,[1],92 nm
"CCC(=O)O[C@]1(C(=O)SCF)[C@H](C)C[C@H]2[C@@H]3C[C@H](F)C4=CC(=O)C=C[C@]4(C)[C@@]3(F)[C@@H](O)C[C@@]21C [Example 22, fluticasone propionate]",average particle diameter of the resulting particles,[1],70 nm
"CCC(=O)O[C@]1(C(=O)SCF)[C@H](C)C[C@H]2[C@@H]3C[C@H](F)C4=CC(=O)C=C[C@]4(C)[C@@]3(F)[C@@H](O)C[C@@]21C [Example 23, fluticasone propionate]",average particle diameter of the resulting particles,[1],109 nm
CCC(=O)OCC(=O)[C@@]1(OC(=O)CC)[C@@H](C)C[C@H]2[C@@H]3CCC4=CC(=O)C=C[C@]4(C)[C@@]3(Cl)[C@@H](O)C[C@@]21C [beclometasone dipropionate],average particle diameter of the starting organic compound,[1],"1,820 nm"
CC(=O)OCC(=O)[C@@]1(O)CC[C@H]2[C@@H]3CCC4=CC(=O)CC[C@]4(C)[C@H]3C(=O)C[C@@]21C [cortisone acetate],average particle diameter of the starting organic compound,[1],"1,060 nm"
same,Ave. Diameter before pulverization (nm),"[1]; cortisone acetate, Example 24","1,060 nm"
same,Ave. Diameter after pulverization (nm),"[1]; cortisone acetate, polyol Diethylene glycol",480 nm
same,Ave. Diameter after pulverization (nm),"[1]; cortisone acetate, polyol Glycerin",260 nm
same,Ave. Diameter after pulverization (nm),"[1]; cortisone acetate, polyol Polyethylene glycol",590 nm
same,Ave. Diameter after pulverization (nm),"[1]; cortisone acetate, polyol Propylene glycol",450 nm
CCC(=O)O[C@]1(C(=O)SCF)[C@H](C)C[C@H]2[C@@H]3C[C@H](F)C4=CC(=O)C=C[C@]4(C)[C@@]3(F)[C@@H](O)C[C@@]21C [fluticasone propionate],average particle diameter of the starting organic compound,[1],"7,850 nm"
CC(C)Cc1ccc(C(C)C(=O)O)cc1 (stereo not drawn) [ibuprofen],average particle diameter of the starting organic compound,[1],"18,050 nm"
COc1ccc2c(c1)c(CC(=O)O)c(C)n2C(=O)c1ccc(Cl)cc1 [indomethacin],average particle diameter of the starting organic compound,[1],"3,980 nm"
Clc1ccc(COC(Cn2ccnc2)c2ccc(Cl)cc2Cl)c(Cl)c1 (stereo not drawn) [miconazole],average particle diameter of the starting organic compound,[1],"10,900 nm"
"CCCCCCCCOc1c(O)c2ccc(NC(=O)C=Cc3cc(OC)c(O)c(OC)c3)cc2n(C)c1=O [quinolinone derivative, 7-(3,5-dimethoxy-4-hydroxycinnamoylamino)-3-octyloxy-4-hydroxy-1-methyl-2(1H)-quinolinone]",average particle diameter of the starting organic compound,[1],"1,280 nm"
same,crystallinity (X-ray diffraction),[2],crystalline structures
COc1cc(C(=O)NS(=O)(=O)c2ccccc2C)ccc1Cc1cn(C)c2ccc(NC(=O)OC3CCCC3)cc12 [zafirlukast],average particle diameter of the starting organic compound,[1],"5,347 nm"
CC1=C(/C=C/C(C)=C/C=C/C(C)=C/C=C/C=C(C)/C=C/C=C(C)/C=C/C2=C(C)CCCC2(C)C)C(C)(C)CCC1 [β-carotene],average particle diameter of the starting organic compound,[1],"1,720 nm"
